From patent publication US9834571B2, “Compounds for inhibiting cell proliferation in EGFR-driven cancers” (ARIAD Pharmaceuticals, Inc., priority 2012, dated 2017)
Where two headings read alike, the source gives them in different places.

Tests used:
[1] = target: human EGFR (native sequence) (Homo sapiens, UniProt P00533); assay: Kinase inhibitory activity against human EGFR (native sequence); assay type: biochemical; conditions: 10 μM ATP, read-out: IC50 for kinase inhibition, EGFR
In short: (§1)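 Singlicate 10 pt curves; top conc. 3 μM; ATP 10 μM.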

[2] = target: EGFR L858R/T790M (Homo sapiens, UniProt P00533, L858R/T790M); assay: Kinase inhibitory activity against EGFR bearing the L858R/T790M double mutation; assay type: biochemical; conditions: 10 μM ATP, read-out: IC50 for kinase inhibition, EGFR L858R T790M
Chain of EGFR L858R/T790M (P00533 25-1210 T790M/L858R): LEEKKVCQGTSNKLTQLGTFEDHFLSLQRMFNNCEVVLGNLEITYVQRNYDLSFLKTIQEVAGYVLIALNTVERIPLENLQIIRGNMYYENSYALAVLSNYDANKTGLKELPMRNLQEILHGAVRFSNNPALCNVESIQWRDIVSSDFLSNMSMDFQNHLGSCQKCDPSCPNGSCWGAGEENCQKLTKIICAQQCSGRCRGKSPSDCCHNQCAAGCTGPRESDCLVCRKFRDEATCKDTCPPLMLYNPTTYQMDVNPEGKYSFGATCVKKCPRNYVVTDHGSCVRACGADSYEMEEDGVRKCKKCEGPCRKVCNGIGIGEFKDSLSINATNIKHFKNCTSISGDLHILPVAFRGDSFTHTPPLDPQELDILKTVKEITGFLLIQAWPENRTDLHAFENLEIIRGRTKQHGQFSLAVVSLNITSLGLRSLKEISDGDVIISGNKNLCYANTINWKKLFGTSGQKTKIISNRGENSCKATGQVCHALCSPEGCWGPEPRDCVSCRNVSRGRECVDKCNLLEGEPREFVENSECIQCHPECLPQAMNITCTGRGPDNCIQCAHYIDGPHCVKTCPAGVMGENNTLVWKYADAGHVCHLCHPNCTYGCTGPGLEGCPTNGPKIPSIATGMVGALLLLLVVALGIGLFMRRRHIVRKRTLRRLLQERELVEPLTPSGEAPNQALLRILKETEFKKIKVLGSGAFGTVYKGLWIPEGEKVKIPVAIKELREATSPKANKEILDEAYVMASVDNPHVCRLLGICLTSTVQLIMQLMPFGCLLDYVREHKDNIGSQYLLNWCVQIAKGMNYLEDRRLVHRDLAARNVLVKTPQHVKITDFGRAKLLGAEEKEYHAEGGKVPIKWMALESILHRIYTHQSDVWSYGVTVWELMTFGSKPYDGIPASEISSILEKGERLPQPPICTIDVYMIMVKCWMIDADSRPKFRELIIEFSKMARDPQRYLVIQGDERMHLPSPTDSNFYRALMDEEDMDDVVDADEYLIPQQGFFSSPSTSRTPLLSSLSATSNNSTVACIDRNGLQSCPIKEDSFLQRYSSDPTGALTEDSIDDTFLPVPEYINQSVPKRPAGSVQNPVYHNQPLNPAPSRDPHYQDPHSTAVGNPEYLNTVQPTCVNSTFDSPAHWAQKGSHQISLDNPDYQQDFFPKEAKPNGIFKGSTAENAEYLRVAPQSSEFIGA
In short: as §1

[3] = target: T1, BaF3 cells expressing the target EGFR mutations (Homo sapiens, UniProt P00533, T790M/L858R, cells depend on it); assay: Antiproliferative activity (MTT) against BaF3 cells expressing the target EGFR mutations; assay type: cell-based; conditions: BAF3 EGFR L858R-T790M PURO POOL cells, read-out: IC50, BAF3 EGFR L858R-T790M PURO POOL
T1 construct: IC50, BAF3 EGFR L858R-T790M PURO POOL; other: BAF3 EGFR L858R-T790M PURO POOL cells, MTT; IC50, BAF3 EGFR L858R-T790M PURO POOL; other: BAF3 EGFR L858R-T790M PURO POOL cells; MTT
T1 sequence (P00533 whole entry T790M/L858R): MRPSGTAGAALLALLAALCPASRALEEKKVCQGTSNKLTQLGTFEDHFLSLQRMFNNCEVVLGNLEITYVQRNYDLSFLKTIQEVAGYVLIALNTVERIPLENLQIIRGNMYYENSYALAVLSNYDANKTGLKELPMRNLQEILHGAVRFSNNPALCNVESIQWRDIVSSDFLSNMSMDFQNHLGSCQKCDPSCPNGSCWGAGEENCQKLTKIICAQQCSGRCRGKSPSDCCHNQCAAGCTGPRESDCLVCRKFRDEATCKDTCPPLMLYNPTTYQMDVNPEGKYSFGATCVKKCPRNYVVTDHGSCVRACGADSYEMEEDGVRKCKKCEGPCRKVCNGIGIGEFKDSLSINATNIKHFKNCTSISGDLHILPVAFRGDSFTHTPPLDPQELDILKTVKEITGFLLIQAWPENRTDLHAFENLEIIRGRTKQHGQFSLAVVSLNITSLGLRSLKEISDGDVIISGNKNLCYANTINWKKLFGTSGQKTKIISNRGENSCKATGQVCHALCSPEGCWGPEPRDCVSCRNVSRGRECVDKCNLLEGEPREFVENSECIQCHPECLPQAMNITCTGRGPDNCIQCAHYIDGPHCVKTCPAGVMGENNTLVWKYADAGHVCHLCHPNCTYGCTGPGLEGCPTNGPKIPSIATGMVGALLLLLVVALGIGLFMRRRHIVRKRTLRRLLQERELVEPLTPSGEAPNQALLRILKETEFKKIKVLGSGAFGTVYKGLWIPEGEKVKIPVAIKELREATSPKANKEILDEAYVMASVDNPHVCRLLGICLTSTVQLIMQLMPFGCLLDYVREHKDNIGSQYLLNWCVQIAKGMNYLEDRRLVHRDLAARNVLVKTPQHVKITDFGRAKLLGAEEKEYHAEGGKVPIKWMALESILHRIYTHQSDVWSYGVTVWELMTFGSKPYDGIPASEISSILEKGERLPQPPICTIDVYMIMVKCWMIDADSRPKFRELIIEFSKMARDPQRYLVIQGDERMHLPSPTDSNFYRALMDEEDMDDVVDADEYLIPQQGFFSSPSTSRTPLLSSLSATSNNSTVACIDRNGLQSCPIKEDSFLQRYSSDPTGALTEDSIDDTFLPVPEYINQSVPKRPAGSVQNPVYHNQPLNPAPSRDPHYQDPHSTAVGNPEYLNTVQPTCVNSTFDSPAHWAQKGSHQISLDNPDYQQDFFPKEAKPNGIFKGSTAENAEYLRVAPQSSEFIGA
In short: (§2)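 In this screen, MTT reduction reported on proliferation of BaF3 cells dependent on mutated EGFR and of matched BaF3 cells expressing wildtype receptor.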

[4] = target: T2, BaF3 cells expressing the target EGFR mutations (Homo sapiens, UniProt P00533, T790M, cells depend on it, form not given); assay: as above; assay type: cell-based; conditions: BAF3 EGFR DEL T790M PURO POOL cells, read-out: IC50, BAF3 EGFR DEL T790M PURO POOL
T2 construct: IC50, BAF3 EGFR DEL T790M PURO POOL; other: BAF3 EGFR DEL T790M PURO POOL cells, MTT; other: BAF3 EGFR DEL T790M PURO POOL cells; MTT
In short: as §2

[5] = target: EGFR L858R (Homo sapiens, UniProt P00533, L858R); assay: Kinase inhibitory activity against EGFR bearing the L858R mutation; assay type: biochemical; conditions: 10 μM ATP, read-out: IC50 for kinase inhibition, EGFR L858R
Chain of EGFR L858R (P00533 25-1210 L858R): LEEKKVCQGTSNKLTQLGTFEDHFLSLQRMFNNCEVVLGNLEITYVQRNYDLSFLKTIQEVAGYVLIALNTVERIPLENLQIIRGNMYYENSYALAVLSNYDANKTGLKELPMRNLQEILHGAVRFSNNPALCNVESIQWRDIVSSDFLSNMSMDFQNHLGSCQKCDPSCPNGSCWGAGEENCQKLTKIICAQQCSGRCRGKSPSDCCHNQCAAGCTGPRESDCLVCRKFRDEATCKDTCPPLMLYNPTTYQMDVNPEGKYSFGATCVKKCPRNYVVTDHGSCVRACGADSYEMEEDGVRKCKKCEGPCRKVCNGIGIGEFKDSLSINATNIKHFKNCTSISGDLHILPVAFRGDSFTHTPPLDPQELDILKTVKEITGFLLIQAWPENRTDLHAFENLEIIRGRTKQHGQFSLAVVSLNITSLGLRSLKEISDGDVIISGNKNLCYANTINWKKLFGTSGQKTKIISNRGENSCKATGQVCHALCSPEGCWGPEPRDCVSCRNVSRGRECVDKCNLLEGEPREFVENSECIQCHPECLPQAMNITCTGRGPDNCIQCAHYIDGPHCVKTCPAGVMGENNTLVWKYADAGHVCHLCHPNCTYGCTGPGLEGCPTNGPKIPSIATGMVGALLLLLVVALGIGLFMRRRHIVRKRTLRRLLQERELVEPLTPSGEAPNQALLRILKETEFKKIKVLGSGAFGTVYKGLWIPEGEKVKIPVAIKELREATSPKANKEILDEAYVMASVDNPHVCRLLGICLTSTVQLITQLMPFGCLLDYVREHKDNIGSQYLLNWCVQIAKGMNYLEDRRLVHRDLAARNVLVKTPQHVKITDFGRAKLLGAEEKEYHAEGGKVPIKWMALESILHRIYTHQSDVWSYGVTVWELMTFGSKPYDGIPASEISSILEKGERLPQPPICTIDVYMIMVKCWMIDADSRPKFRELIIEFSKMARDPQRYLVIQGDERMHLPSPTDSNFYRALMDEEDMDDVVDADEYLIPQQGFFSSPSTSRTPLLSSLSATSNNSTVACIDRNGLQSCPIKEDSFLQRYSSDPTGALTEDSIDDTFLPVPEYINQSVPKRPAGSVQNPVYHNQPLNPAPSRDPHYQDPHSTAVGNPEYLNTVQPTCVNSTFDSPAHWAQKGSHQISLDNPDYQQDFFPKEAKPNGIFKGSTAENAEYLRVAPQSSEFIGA
In short: as §1

[6] = test system: BaF3 cells expressing wildtype EGFR; assay: Antiproliferative activity (MTT) against control BaF3 cells expressing wildtype EGFR; assay type: cell-based; conditions: Mus musculus
In short: as §2

[7] = EGFR L858R/T790M double mutation
[8] = 10 pt curves, 3 μM top concentration

Chain of human EGFR (native sequence) (P00533 25-1210): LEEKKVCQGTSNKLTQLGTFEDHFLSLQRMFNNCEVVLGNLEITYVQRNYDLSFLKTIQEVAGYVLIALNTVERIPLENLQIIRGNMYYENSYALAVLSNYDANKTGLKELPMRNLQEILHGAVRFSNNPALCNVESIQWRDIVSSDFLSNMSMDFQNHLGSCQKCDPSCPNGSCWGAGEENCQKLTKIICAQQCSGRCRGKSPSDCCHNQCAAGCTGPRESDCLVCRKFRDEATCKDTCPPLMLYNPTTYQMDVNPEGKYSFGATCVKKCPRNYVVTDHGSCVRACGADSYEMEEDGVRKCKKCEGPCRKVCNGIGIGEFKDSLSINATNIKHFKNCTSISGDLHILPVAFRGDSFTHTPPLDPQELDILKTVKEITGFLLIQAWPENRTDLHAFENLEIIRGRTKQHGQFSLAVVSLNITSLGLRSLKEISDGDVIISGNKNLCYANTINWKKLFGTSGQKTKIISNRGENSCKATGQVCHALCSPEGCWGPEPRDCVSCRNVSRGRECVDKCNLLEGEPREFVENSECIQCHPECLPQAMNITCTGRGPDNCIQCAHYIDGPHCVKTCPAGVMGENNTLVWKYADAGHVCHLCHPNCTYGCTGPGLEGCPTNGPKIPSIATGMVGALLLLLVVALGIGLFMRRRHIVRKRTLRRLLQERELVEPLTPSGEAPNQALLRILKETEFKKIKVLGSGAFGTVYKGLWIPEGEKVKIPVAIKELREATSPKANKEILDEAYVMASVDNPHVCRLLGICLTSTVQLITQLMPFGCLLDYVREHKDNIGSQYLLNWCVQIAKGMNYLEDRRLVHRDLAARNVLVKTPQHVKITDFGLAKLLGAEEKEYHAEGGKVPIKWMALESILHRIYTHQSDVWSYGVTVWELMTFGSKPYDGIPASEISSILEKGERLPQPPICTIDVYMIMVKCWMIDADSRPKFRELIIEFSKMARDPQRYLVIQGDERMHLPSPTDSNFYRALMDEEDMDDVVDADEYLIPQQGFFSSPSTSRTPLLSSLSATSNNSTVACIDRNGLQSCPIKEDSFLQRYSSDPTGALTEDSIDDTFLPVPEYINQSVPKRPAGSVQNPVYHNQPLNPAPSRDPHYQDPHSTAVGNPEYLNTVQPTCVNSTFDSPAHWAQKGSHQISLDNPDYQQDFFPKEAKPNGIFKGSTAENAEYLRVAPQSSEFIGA

| IC50 ([1]; human EGFR native sequence) [nM] | IC50 [2, 7] [nM] | GI50 [3] [nM] | GI50 [4] [nM] | IC50 ([5]; EGFR L858R) [nM] | IC50 [1, 8] [nM] | IC50 [2, 8] [nM] | IC50 [5, 8] [nM] | SMILES | IC50 ([6]; BAF3 PARENTAL cells (control)) [nM] | IC50 ([6]; BAF3 parental cells) [nM] |
| --- | --- | --- | --- | --- | --- | --- | --- | --- | --- | --- |
| < 50 | < 50 | < 50 | < 50 | < 50 | – | – | – | C=CC(=O)Nc1cc(Nc2ncc(Cl)c(Nc3ccccc3P(C)(C)=O)n2)c(OC)cc1OCCN1CCCCC1 [Example 8, N-(5-((5-chloro-4-((2-(dimethylphosphoryl)phenyl)amino)pyrimidin-2-yl)amino)-4-methoxy-2-(2-(piperidin-1-yl)ethoxy)phenyl)acrylamide] | ≥ 250 | – |
| – | – | ≥ 250 | 101 to 250 | – | < 50 | < 50 | < 50 | C=CC(=O)Nc1ccc(OC)c(Nc2ncc(C#N)c(Nc3ccccc3P(C)(C)=O)n2)c1 [Example 139, N-(3-((5-cyano-4-((2-(dimethylphosphoryl)phenyl)amino)pyrimidin-2-yl)amino)-4-methoxyphenyl)acrylamide] | – | ≥ 250 |
| < 50 | < 50 | < 50 | < 50 | < 50 | – | – | – | C=CC(=O)Nc1cc(Nc2ncc(Cl)c(Nc3ccccc3P(C)(C)=O)n2)c(OC)cc1OC1CCCN(C)C1 (stereo not drawn) [Example 12, N-(5-((5-chloro-4-((2-(dimethylphosphoryl)phenyl)amino)pyrimidin-2-yl)amino)-4-methoxy-2-((1-methylpiperidin-3-yl)oxy)phenyl)acrylamide] | ≥ 250 | – |
| < 50 | < 50 | < 50 | < 50 | < 50 | – | – | – | COc1cc(F)c(NC(=O)C#CCCN2CCCCC2)cc1Nc1ncc(Cl)c(Nc2ccccc2P(C)(C)=O)n1 [Example 88, N-(5-((5-chloro-4-((2-(dimethylphosphoryl)phenyl)amino)pyrimidin-2-yl)amino)-2-fluoro-4-methoxyphenyl)-5-(piperidin-1-yl)pent-2-ynamide] | ≥ 250 | – |
| – | – | < 50 | < 50 | – | < 50 | < 50 | < 50 | COc1cc(N2CCOCC2)c(NC(=O)C#CCCN2CCN(C)CC2)cc1Nc1ncc(Cl)c(Nc2ccccc2P(C)(C)=O)n1 [Example 118, N-(5-((5-chloro-4-((2-(dimethylphosphoryl)phenyl)amino)pyrimidin-2-yl)amino)-4-methoxy-2-morpholinophenyl)-5-(4-methylpiperazin-1-yl)pent-2-ynamide] | – | ≥ 250 |
| 101 to 250 | < 50 | ≥ 250 | ≥ 250 | < 50 | – | – | – | C=CC(=O)Nc1cc(Nc2ncc(Cl)c(Nc3ccccc3P(C)(C)=O)n2)c(OC)cc1C(=O)N1CCN(C)CC1 [Example 56, N-(5-((5-chloro-4-((2-(dimethylphosphoryl)phenyl)amino)pyrimidin-2-yl)amino)-4-methoxy-2-(4-methylpiperazine-1-carbonyl)phenyl)acrylamide] | ≥ 250 | – |
| – | – | < 50 | < 50 | – | < 50 | < 50 | < 50 | COCC#CC(=O)Nc1cc(Nc2ncc(Cl)c(Nc3ccccc3P(C)(C)=O)n2)c(OC)cc1N1CCC(N(C)C)C1 (stereo not drawn) [Example 111, N-(5-((5-chloro-4-((2-(dimethylphosphoryl)phenyl)amino)pyrimidin-2-yl)amino)-2-(3-(dimethylamino)pyrrolidin-1-yl)-4-methoxyphenyl)-4-methoxybut-2-ynamide] | – | ≥ 250 |
| < 50 | < 50 | < 50 | < 50 | < 50 | – | – | – | C=CC(=O)Nc1cc(Nc2ncc(Cl)c(Nc3ccccc3P(C)(C)=O)n2)c(OC)cc1N1CCC(N2CCCCC2)CC1 [Example 69, N-(2-([1,4′-bipiperidin]-1-yl)-5-((5-chloro-4-((2-(dimethylphosphoryl)phenyl)amino)pyrimidin-2-yl)amino)-4-methoxyphenyl)acrylamide] | ≥ 250 | – |
